The term minimal effective dose denotes the smallest amount tested that counted as effective. In general, LD50 refers to the dose at which mortality reaches 50%.

Series [1] deals with β-adrenergic. As to the kind of experiment: β-adrenergic blockage, in vitro. The following applies: in vit., rat, dose 10. Also on record: unit not given here. The procedure:
(§1) As the results of Table 3 show, the compounds of this invention have both lower toxicity and different side effects than metoclopramide. Compounds of this invention have interesting pharmacological characteristics. The pharmaco dynamics of the compounds prepared in Examples 9, 43 and 48 in the form of their hydrochlorides, as well as the reference compound, metoclopramide dihydrochloride, were determined by pharmacological screening for 54 group activities. The activities which were found were confirmed by secondary tests. Additionally, the ED100 of known group-specific comparative compounds is given.

Series [2] has as its system Adjuvans arthritis. Put plainly: Adjuvans arthritis stoppage. In kind it is in vivo, rat. The settings on record: for anti-inflammatory activity in the adjuvenous arthritis test: result in words; for Adjuvans arthritis stoppage, percent inhibition of the secondary lesions on the 14th day (first value) / Adjuvans arthritis stoppage, percent inhibition of the secondary lesions on the 14th day (second value): rat, 100 mg/kg p.o.; for Adjuvans arthritis stoppage, percent inhibition of the secondary lesions on the 14th day (first value): first of two values; for Adjuvans arthritis stoppage, percent inhibition of the secondary lesions on the 14th day (second value): second of two values. The procedure:
as §1

Series [3] can be described thus: antiallergic characteristics (summary statement). The following applies: result in words.
A short description of series [4]: antimicrobial characteristics (summary statement). The following applies: result in words.
The nature of series [5]: acute carrageneen experiment. In kind it is in vivo. The settings on record: result in words.
Series [6] in a line: Muscle relaxant test. In kind it is in vivo, mouse. The settings on record: po; for minimal effective dose at 300 mg/kg: mouse, p.o., read-out: Muscle relaxant, MED (average minimal effective dose). The procedure: as §1
The nature of series [7]: Antiedematous test. In kind it is in vivo. The settings on record: po, rat, p.o.; for minimal effective dose: read-out: Antiedematous, MED (average minimal effective dose). The procedure:
as §1

Series [8] is described as follows: Cataleptic test. The format is in vivo, mouse. The following applies: po; for minimal effective dose at 100 mg/kg: mouse, p.o., read-out: Cataleptic, MED (average minimal effective dose). As for the experimental part: as §1
The nature of series [9]: Antithrombotic test. The format is in vivo, rat. The following applies: po; for minimal effective dose at 100 mg/kg: rat, p.o., read-out: Antithrombotic, MED (average minimal effective dose). As for the experimental part:
as §1

Series [10] can be described thus: Systematic anaphylactic test. The format is in vivo. The following applies: po, mouse, p.o. As for the experimental part:
as §1

Series [11] is described as follows: Antiasthmatic test. The format is in vivo. The settings on record: po, rat, p.o.; for minimal effective dose: read-out: Antiasthmatic, MED (average minimal effective dose). As for the experimental part:
as §1

The subject of series [12] is E. Coli. Put plainly: antibacterial test E. Coli, in vitro. In kind it is cell-based. The following applies: in vit. The procedure: as §1
A short description of series [13]: Amphetamine stereotype. The format is in vivo, mouse. The following applies: po. As for the experimental part: as §1
Series [14] can be described thus: Antiaggressive test. The format is in vivo, mouse. The procedure:
as §1

A short description of series [15]: Anti-electroshock test. The format is in vivo. The following applies: po, mouse, p.o. As for the experimental part: as §1
Series [16] is described as follows: Antiarrhytmic test. The format is in vivo. The following applies: mouse, i.p. The procedure: as §1
The conditions of series [17]: i.p., mouse; cited from earlier work.
For series [18] the following is noted: rat, cited from earlier work.

Counter-ions that a name gives are not always drawn. Like-named read-outs stand apart in the source and are kept apart here.

Turning to `CCN(CC)CCNC(=O)c1cc(Cl)c(NC(=O)C(C)(C)Oc2ccc(Cl)cc2)cc1OC` [Example 9], in series [1], the “β-adrenergic blockage, MEC (average effective concentration)” value is listed as 10.

Turning to `CCN(CC)CCNC(=O)c1cc(Cl)c(NC(=O)COc2ccc(Cl)cc2)cc1OC` [Example 40], the “anti-inflammatory activity in the adjuvenous arthritis test” value in series [2] is listed as “very strong anti-inflammatory activity”. Further, the antiallergic characteristics entry in series [3] was “antiallergic characteristics”. The antimicrobial characteristics entry in series [4] is recorded as “weak antimicrobial”. In [5], the “anti-inflammatory activity in the acute carrageneen experiment” value was “very strong anti-inflammatory activity”.

In the case of `CCN(CC)CCNC(=O)c1cc(Cl)c(NC(=O)COc2ccc(Cl)cc2)cc1OC` [Example 43], in series [6], the minimal effective dose at 300 mg/kg was 300 mg/kg. Also, the minimal effective dose in [7] turned out to be 100 mg/kg; in series [10] (read-out: Systematic anaphylactic, MED (average minimal effective dose)), 100 mg/kg; in series [11], 100 mg/kg. In addition, the minimal effective dose at 100 mg/kg stood at 100 mg/kg in series [8] and 50 mg/kg in [9]. Moreover, the “Adjuvans arthritis stoppage, percent inhibition of the secondary lesions on the 14th day (first value)” value in series [2] is given as 43%. In [2], the “Adjuvans arthritis stoppage, percent inhibition of the secondary lesions on the 14th day (second value)” value turned out to be 46%.

With `CCN(CC)CCNC(=O)c1cc(Cl)c(NC(=O)C(C)Oc2ccc(Cl)cc2)cc1OC` (stereo not drawn) [Example 45], the “anti-inflammatory activity in the adjuvenous arthritis test” value in series [2] is “very strong anti-inflammatory activity”. Moreover, the antiallergic characteristics entry in [3] was “antiallergic characteristics”. Moreover, the antimicrobial characteristics result in series [4] is listed as “weak antimicrobial”. For the same molecule, the “anti-inflammatory activity in the acute carrageneen experiment” value in series [5] is recorded as “very strong anti-inflammatory activity”.

As to `CCN(CC)CCNC(=O)c1cc(Cl)c(NC(=O)C(C)Oc2ccc(Cl)cc2)cc1OC` (stereo not drawn) [Example 48], the minimal effective dose at 100 mg/kg in series [9] came to 100 mg/kg. Moreover, the minimal effective dose in series [11] is 100 mg/kg. Moreover, in series [2], the “Adjuvans arthritis stoppage, percent inhibition of the secondary lesions on the 14th day (first value)” value is reported as 45% and the “Adjuvans arthritis stoppage, percent inhibition of the secondary lesions on the 14th day (second value)” value was determined as 33%.

Turning to `CC(=O)Oc1ccccc1C(=O)O` [acetylsalicylic acid], in series [9] (Rattus norvegicus, read-out: Antithrombotic, ED100 of reference compound), the ED100 was 100 mg/kg.

On to `CC1(C)S[C@@H]2[C@H](NC(=O)[C@H](N)c3ccccc3)C(=O)N2[C@H]1C(=O)O` [ampicillin], for which the “E. Coli, ED100 of reference compound” value in series [12] came to 0.5 mg/kg.

For `CN(C)CCCN1c2ccccc2Sc2ccc(Cl)cc21` [chlorpromazine], the ED100 in series [13] (Mus musculus, read-out: Amphetamine stereotype, ED100 of reference compound) worked out at 5 mg/kg; in [14] (Mus musculus, po, read-out: Antiaggressive, ED100 of reference compound), 5 mg/kg.

Take `O=C(O)c1cc(=O)c2c(OCC(O)COc3cccc4oc(C(=O)O)cc(=O)c34)cccc2o1` [chromoglycine-sodium]: the ED100 in series [11] (read-out: Antiasthmatic, ED100 of reference compound) was determined as 60 mg/kg.

As for `O=C1NC(=O)C(c2ccccc2)(c2ccccc2)N1` [diphenylhydomtoin], the ED100 in series [15] (read-out: Anti-electroshock, ED100 of reference compound) turned out to be 10 mg/kg.

In the case of `CCN(CC)CCNC(=O)c1cc(Cl)c(N)cc1OC` [metoclopramide dihydrochloride], the minimal effective dose at 300 mg/kg in series [6] is 100 mg/kg. Moreover, the minimal effective dose in series [15] (read-out: Anti-electroshock, MED (average minimal effective dose)) was determined as 100 mg/kg; in series [7] it was 50 mg/kg; in series [16] (ip, read-out: Antiarrhytmic, MED (average minimal effective dose)), 100 mg/kg. Further, the minimal effective dose at 25 mg/kg in [13] (mouse, p.o., dose 25 mg/kg, read-out: Amphetamine stereotype, MED (average minimal effective dose)) worked out at 25 mg/kg. Further, the minimal effective dose at 100 mg/kg in series [8] came out at 100 mg/kg. In series [14] (mouse, p.o., dose 50 mg/kg, MED not given), this molecule registered an Antiaggressive of 50 mg/kg.

`CCN(CC)CCNC(=O)c1cc(Cl)c(N)cc1OC` [metoclopramide]: the values for the LD50 in [17], in series [18] (i.p.) and in [18] (oral) were 242 mg/kg, 180 mg/kg and 235 mg/kg, respectively.

For the molecule `CCC1(c2ccccc2)C(=O)NC(=O)NC1=O` [phenobarbital], the ED100 in [6] (Mus musculus, read-out: Muscle relaxant, ED100 of reference compound) was 100 mg/kg; in series [8] (Mus musculus, read-out: Cataleptic, ED100 of reference compound), 100 mg/kg.

As to `CCCCC1C(=O)N(c2ccccc2)N(c2ccccc2)C1=O` [phenybutazone], in series [7] (read-out: Antiedematous, ED100 of reference compound), the ED100 stood at 50 mg/kg.

`CN(C)CCOc1ccccc1Cc1ccccc1` [phenyltoloxamine]: in series [10] (read-out: Systematic anaphylactic, ED100 of reference compound), the ED100 came out at 50 mg/kg.

In the case of guanidine, in series [16], the “Antiarrhytmic, ED100 of reference compound” value came to 100 mg/kg.

Source of the values: patent US4146637A, “Anti-inflammatory N-acyl substituted benzamides” (priority 1976, dated 1979).
